As for `COc1cc(O)c(NC(=O)Cc2c(-c3ccccc3)c3cc4c(cc3oc2=O)CCC4)c(OC)c1` [Example 11], the melting point (in general, the temperature, or range, at which the solid turns liquid) was 170 to 172 °C.

In the case of `O=C(Cc1c(-c2ccccc2)c2cc(CO)ccc2oc1=O)Nc1ccc(Cl)cc1C(F)(F)F` [Example 86], the melting point was 226 to 227 °C.

As to `Cc1cc2oc(=O)c(CC(=O)Nc3ccc(F)cc3C(F)(F)F)c(-c3ccccc3)c2cc1Br` [Example 177, 2-(6-bromo-7-methyl-2-oxo-4-phenyl-2H-chromen-3-yl)-N-[4-fluoro-2-(trifluoromethyl)phenyl]acetamide], the melting point is 237 to 238 °C.

Molecule `CC(=O)OCc1cc2c(-c3ccccc3)c(CC(=O)Nc3ccc(Cl)cc3C(F)(F)F)c(=O)oc2cc1Cl` [Example 82, [7-chloro-3-{2-(4-chloro-2-trifluoromethylanilino)-2-oxoethyl}-2-oxo-4-phenyl-2H-chromen-6-yl]methyl acetate] returned a melting point of 186 to 187 °C.

Molecule `O=C(Cc1c(-c2ccccc2)c2cc(CO)c(Cl)cc2oc1=O)Nc1ccc(Cl)cc1C(F)(F)F` [Example 85] gave a melting point of 241 to 243 °C.

`COc1cccc(OC)c1NC(=O)Cc1c(-c2ccccc2)c2cc(F)c(F)cc2oc1=O` [Example 41] came in with a melting point of 196 to 198 °C.

On to `COc1cc(O)cc(OC)c1NC(=O)Cc1c(-c2ccccc2)c2cc3c(cc2oc1=O)CCC3` [Example 10], for which the melting point was 160 °C (dec.).

For `CCc1ccccc1NC(=O)Cc1c(-c2ccccc2)c2cc3c(cc2oc1=O)CCC3` [Example 6], the melting point lay within 234 to 237 °C.

For the molecule `CCOc1cccc(OCC)c1NC(=O)Cc1c(-c2ccccc2)c2cc(Cl)c(Cl)cc2oc1=O` [Example 37], the melting point lay in the range of 246 to 247 °C.

Molecule `COc1cccc(OC)c1NC(=O)Cc1c(-c2ccccc2)c2cc(Cl)c(Cl)cc2oc1=O` [Example 36] came in with a melting point of 249 to 250 °C.

In the case of `COc1cccc(C)c1NC(=O)Cc1c(-c2ccccc2)c2cc3c(cc2oc1=O)CCC3` [Example 5], the melting point fell in the range of 232 to 237 °C.

`COc1cccc(OC)c1NC(=O)Cc1c(-c2ccccc2)c2cc(Cl)c(Cl)c(Cl)c2oc1=O` [Example 40] came in with a melting point of 289 to 291 °C.

In the case of `O=C(Cc1c(-c2ccccc2)c2cc3c(cc2oc1=O)CCC3)Nc1c(Cl)cncc1Cl` [Example 15, N-(3,5-dichloro-4-pyridyl)-2-(2-oxo-4-phenyl-2,6,7,8-tetrahydrocyclopenta[g]chromen-3-yl)acetamide], the melting point is 257 to 259 °C.

The molecule `COc1cccc(OC)c1NC(=O)Cc1c(-c2ccccc2C)c2cc(Cl)c(C)cc2oc1=O` [Example 23] returned a melting point of 176 to 177 °C.

Turning to `CCOC(=O)C=Cc1cccc(-c2c(CC(=O)Nc3ccc(Cl)cc3C(F)(F)F)c(=O)oc3cc(Cl)c(C)cc23)c1` [Example 336], the melting point is 118 °C (dec.).

As to `O=C(Cc1c(-c2ccccc2)c2cc3c(cc2oc1=O)CCC3)Nc1c(OC2CCCC2)cccc1OC1CCCC1` [Example 14], the melting point fell in the range of 224 to 226 °C.

The molecule `COc1cccc(OC)c1NC(=O)Cc1c(-c2ccccc2)c2cc(CN(C)C)c(Cl)cc2oc1=O` [Example 70, 2-[7-chloro-6-{(dimethylamino)methyl}-2-oxo-4-phenyl-2H-chromen-3-yl]-N-(2,6-dimethoxyphenyl)acetamide] returned a melting point of 221 to 223 °C.

`Cc1cc2c(-c3cccnc3)c(CC(=O)Nc3ccc(F)cc3C(F)(F)F)c(=O)oc2cc1Cl` [Example 330] gave a melting point of 213 to 215 °C.

As for `Cc1cc2c(-c3ccccc3)c(CC(=O)Nc3c(C(C)C)cccc3C(C)C)c(=O)oc2cc1Cl` [Example 46], the melting point lay within 280 to 282 °C.

On to `Cc1cc2oc(=O)c(CC(=O)Nc3c(C(C)C)cccc3C(C)C)c(-c3ccccc3Cl)c2cc1Cl` [Example 25], for which the melting point lay within 245 to 246 °C.

Source of the values: US6974806B2, “Lipid-rich plaque inhibitors” (Takeda Pharmaceutical Company Limited, priority 2000, dated 2005).
